Test results as given in patent publication EP4722212A1, “NOVEL COMPOUND FOR INHIBITING PROTEIN KINASES AND PHARMACEUTICAL COMPOSITION COMPRISING SAME” (Magicbullettherapeutics Co., Ltd., priority 2023, dated 2024).

test system: C4-2B; test: Cell line inhibition analysis (CCK-8, 72 h); format: cell-based; conditions: read-out: Cell growth inhibition GI50 C4-2B
Procedure: C4-2B and 22Rv1 cells were purchased from ATCC and cultured according to the manufacturer's instructions. The cells were seeded in 96-well plates at 7×10^3cells/100 µl/well and allowed to attach for one day. After removing the culture medium, 90 µl/well of fresh culture medium was added, followed by addition of 10 µl/well of culture medium containing compounds at nine concentrations (0.076-500 µM) serially diluted 3-fold and DMSO control to achieve final concentrations of 0-50 µM, and then cultured for 72 hours in a 37 °C CO2 incubator. Cell proliferation after 72 hours was assessed by adding 10 µl/well of CCK-8 solution, orbital shaking for 30 seconds, then incubating at 37 °C CO2 incubator for 2 hours and measuring absorbance at 450 nm using a microplate reader. The measured absorbance values were corrected by subtracting the absorbance of wells containing only culture medium and CCK-8 solution, and GI50 values were calculated using GraphPad Prism 8 software.
Meanwhile, in a separate 96-well plate, cells were seeded at 7 × 10^3 cells/100 µl/well, allowed to attach for one day, CCK-8 solution was added, and absorbance was measured to establish the 'Growth (%) = 0' value.

Row | Structure (SMILES) | GI50
1 | Cc1ccc(NC(=O)c2ccc(F)c(F)c2)cc1N1Cc2cnc(N)nc2C2(CC2)C1=O [Compound 9, N-(3-(2'-amino-7'-oxo-5'H-spiro[cyclopropane-1,8'-pyrido[4,3-d]pyrimidine]-6'(7'H)-yl)-4-methylphenyl)-3,4-difluorobenzamide] | > 10 µM
2 | Cc1ccc(NC(=O)c2cc(F)cc(F)c2)cc1N1Cc2cnc(NC3CC3)nc2C2(CC2)C1=O [Compound 11, N-(3-(2'-(cyclopropylamino)-7'-oxo-5'H-spiro[cyclopropane-1,8'-pyrido[4,3-d]pyrimidine]-6'(7'H)-yl)-4-methylphenyl)-3,5-difluorobenzamide] | > 10 µM
3 | Cc1ccc(NC(=O)c2cc(N3CCN(C)CC3)cc(C(F)(F)F)c2)cc1N1Cc2cnc(N)nc2C2(CC2)C1=O [Compound 33, N-(3-(2'-amino-7'-oxo-5'H-spiro[cyclopropane-1,8'-pyrido[4,3-d]pyrimidine]-6'(7'H)-yl)-4-methylphenyl)-3-(4-methylpiperazin-1-yl)-5-(trifluoromethyl)benzamide] | 5 to 10 µM
4 | COCCN(C)c1cc(C(=O)Nc2ccc(C)c(N3Cc4cnc(NC5CC5)nc4C4(CC4)C3=O)c2)cc(C(F)(F)F)c1 [Compound 30, N-(3-(2'-(cyclopropylamino)-7'-oxo-5'H-spiro[cyclopropane-1,8'-pyrido[4,3-d]pyrimidine]-6'(7'H)-yl)-4-methylphenyl)-3-((2-methoxyethyl)(methyl)amino)-5-(trifluoromethyl)benzamide] | 1 to 5 µM
5 | Cc1ccc(NC(=O)c2cc(F)cc(C(F)(F)F)c2)cc1N1Cc2cnc(NC3CC3)nc2C2(CC2)C1=O [Compound 27, N-(3-(2'-(cyclopropylamino)-7'-oxo-5'H-spiro[cyclopropane-1,8'-pyrido[4,3-d]pyrimidine]-6'(7'H)-yl)-4-methylphenyl)-3-fluoro-5-(trifluoromethyl)benzamide] | 5 to 10 µM
6 | Cc1ccc(NC(=O)c2ccc(F)c(F)c2)cc1N1Cc2cnc(NC3CC3)nc2C2(CC2)C1=O [Compound 10, N-(3-(2'-(cyclopropylamino)-7'-oxo-5'H-spiro[cyclopropane-1,8'-pyrido[4,3-d]pyrimidine]-6'(7'H)-yl)-4-methylphenyl)-3,4-difluorobenzamide] | > 10 µM
7 | Cc1ccc(NC(=O)c2cc(N3CCN(C)CC3)cc(C(F)(F)F)c2)cc1N1Cc2cnc(NC3CC3)nc2C2(CC2)C1=O [Compound 32, N-(3-(2'-(cyclopropylamino)-7'-oxo-5'H-spiro[cyclopropane-1,8'-pyrido[4,3-d]pyrimidine]-6'(7'H)-yl)-4-methylphenyl)-3-(4-methylpiperazin-1-yl)-5-(trifluoromethyl)benzamide] | 1 to 5 µM
8 | Cc1ccc(NC(=O)c2ccc(F)cc2F)cc1N1Cc2cnc(N)nc2C2(CC2)C1=O [Compound 14, N-(3-(2'-amino-7'-oxo-5'H-spiro[cyclopropane-1,8'-pyrido[4,3-d]pyrimidine]-6'(7'H)-yl)-4-methylphenyl)-2,4-difluorobenzamide] | > 10 µM
9 | Cc1ccc(NC(=O)c2cc(O)cc(C(F)(F)F)c2)cc1N1Cc2cnc(N)nc2C2(CC2)C1=O [Compound 23, N-(3-(2'-amino-7'-oxo-5'H-spiro[cyclopropane-1,8'-pyrido[4,3-d]pyrimidine]-6'(7'H)-yl)-4-methylphenyl)-3-hydroxy-5-(trifluoromethyl)benzamide] | 5 to 10 µM
10 | Cc1ccc(NC(=O)c2cc(C(F)(F)F)ccc2F)cc1N1Cc2cnc(N)nc2C2(CC2)C1=O [Compound 18, N-(3-(2'-amino-7'-oxo-5'H-spiro[cyclopropane-1,8'-pyrido[4,3-d]pyrimidine]-6'(7'H)-yl)-4-methylphenyl)-2-fluoro-5-(trifluoromethyl)benzamide] | > 10 µM
11 | Cc1ccc(NC(=O)c2cc(N3CCNCC3)cc(C(F)(F)F)c2)cc1N1Cc2cnc(N)nc2C2(CC2)C1=O [Compound 34, N-(3-(2'-amino-7'-oxo-5'H-spiro[cyclopropane-1,8'-pyrido[4,3-d]pyrimidine]-6'(7'H)-yl)-4-methylphenyl)-3-(piperazin-1-yl)-5-(trifluoromethyl)benzamide] | 5 to 10 µM
12 | Cc1ccc(NC(=O)c2cccc(C(F)(F)F)n2)cc1N1Cc2cnc(N)nc2C2(CC2)C1=O [Compound 21, N-(3-(2'-amino-7'-oxo-5'H-spiro[cyclopropane-1,8'-pyrido[4,3-d]pyrimidine]-6'(7'H)-yl)-4-methylphenyl)-6-(trifluoromethyl)picolinamide] | > 10 µM
13 | Cc1ccc(NC(=O)c2cc(N3CCNCC3)cc(C(F)(F)F)c2)cc1N1Cc2cnc(NC3CC3)nc2C2(CC2)C1=O [Compound 35, N-(3-(2'-(cyclopropylamino)-7'-oxo-5'H-spiro[cyclopropane-1,8'-pyrido[4,3-d]pyrimidine]-6'(7'H)-yl)-4-methylphenyl)-3-(piperazin-1-yl)-5-(trifluoromethyl)benzamide] | 5 to 10 µM
14 | Cc1ccc(NC(=O)c2cc(Br)cc(C(F)(F)F)c2)cc1N1Cc2cnc(NC3CC3)nc2C2(CC2)C1=O [Compound 13, 3-bromo-N-(3-(2'-(cyclopropylamino)-7'-oxo-5'H-spiro[cyclopropane-1,8'-pyrido[4,3-d]pyrimidine]-6'(7'H)-yl)-4-methylphenyl)-5-(trifluoromethyl)benzamide] | > 10 µM
15 | Cc1ccc(NC(=O)c2cc(N(C)CCN(C)C)cc(C(F)(F)F)c2)cc1N1Cc2cnc(NC3CC3)nc2C2(CC2)C1=O [Compound 36, N-(3-(2'-(cyclopropylamino)-7'-oxo-5'H-spiro[cyclopropane-1,8'-pyrido[4,3-d]pyrimidine]-6'(7'H)-yl)-4-methylphenyl)-3-((2-(dimethylamino)ethyl)(methyl)amino)-5-(trifluoromethyl)benzamide] | 5 to 10 µM
16 | Cc1ccc(NC(=O)c2cc(C(F)(F)F)cc(Cl)c2F)cc1N1Cc2cnc(N)nc2C2(CC2)C1=O [Compound 17, N-(3-(2'-amino-7'-oxo-5'H-spiro[cyclopropane-1,8'-pyrido[4,3-d]pyrimidine]-6'(7'H)-yl)-4-methylphenyl)-3-chloro-2-fluoro-5-(trifluoromethyl)benzamide] | > 10 µM
17 | COc1cccc(C(=O)Nc2ccc(C)c(N3Cc4cnc(N)nc4C4(CC4)C3=O)c2)c1 [Compound 16, N-(3-(2'-amino-7'-oxo-5'H-spiro[cyclopropane-1,8'-pyrido[4,3-d]pyrimidine]-6'(7'H)-yl)-4-methylphenyl)-3-methoxybenzamide] | > 10 µM
18 | Cc1ccc(NC(=O)c2ccc(C)c(C(F)(F)F)c2)cc1N1Cc2cnc(NC3CC3)nc2C2(CC2)C1=O [Compound 12, N-(3-(2'-(cyclopropylamino)-7'-oxo-5'H-spiro[cyclopropane-1,8'-pyrido[4,3-d]pyrimidine]-6'(7'H)-yl)-4-methylphenyl)-4-methyl-3-(trifluoromethyl)benzamide] | 1 to 5 µM
19 | Cc1ccc(NC(=O)c2cc(F)cc(F)c2)cc1N1Cc2cnc(N)nc2C2(CC2)C1=O [Compound 15, N-(3-(2'-amino-7'-oxo-5'H-spiro[cyclopropane-1,8'-pyrido[4,3-d]pyrimidine]-6'(7'H)-yl)-4-methylphenyl)-3,5-difluorobenzamide] | 5 to 10 µM
20 | Cc1ccc(NC(=O)c2cc(N(C)CCN(C)C)cc(C(F)(F)F)c2)cc1N1Cc2cnc(N)nc2C2(CC2)C1=O [Compound 37, N-(3-(2'-amino-7'-oxo-5'H-spiro[cyclopropane-1,8'-pyrido[4,3-d]pyrimidine]-6'(7'H)-yl)-4-methylphenyl)-3-((2-(dimethylamino)ethyl)(methyl)amino)-5-(trifluoromethyl)benzamide] | > 10 µM
